The record followed here is article PMC9495681, “Examining Topoisomers of a Snake-Venom-Derived Peptide for Improved Antimicrobial and Antitumoral Properties” (Biomedicines, 2022).

≈ marks a conversion by molar mass, not a printed value. Square brackets hold non-standard residues; d marks the D form. Peptide text beside a SMILES is read from it.

What all share (test): Minimal inhibitory concentration (MIC), broth microdilution
Type in all cases: cell-based
Common to all, as to settings: Mueller Hinton Broth, 5 × 10^5 CFU/mL, 0.04% BSA and 0.002% acetic acid, 20–22 h at 37 °C, duplicate

For test [1], the system named is Pseudomonas sp. (ATCC15915). As to the method:
(§1) Assays were performed on three Gram-negative bacteria: E. coli (BW25113, Coli Genetic Stock Center), A. baumannii (ATCC 15308, CECT, Valencia, Spain), and Pseudomonas sp. (ATCC15915, CECT). The minimal inhibitory concentration (MIC) of each peptide was determined as described by Wiegand et al.. Peptide stocks in water were added to polypropylene 96-well plates (Greiner, Frickenhausen, Germany) and serially diluted from 100 to 0.2 μM. Fresh bacteria were incubated at 37 °C in Mueller Hinton Broth (MHB, Condalab, Torrejón de Ardoz, Spain) up to exponential growth and diluted to a final inoculum of 5 × 10^5 CFU/mL. BSA and acetic acid at 0.04% (w/v) and 0.002% (v/v) final concentration, respectively, were added to avoid peptide self-aggregation. Plates were incubated for 20–22 h at 37 °C. Each peptide was tested in duplicate. MIC values were the lowest peptide concentration where bacterial growth was not detected.

Test [2] deals with A. baumannii (ATCC 15308). As to the method: as §1
A further test relates to E. coli (BW25113). As to the method: as §1

In the case of `CC[C@@H](C)[C@@H](NC(=O)[C@@H](CCCCN)NC(=O)[C@@H](CCCCN)NC(=O)[C@@H](CC(C)C)NC(=O)[C@@H](CCCNC(=N)N)NC(=O)[C@@H](CCCCN)NC(=O)[C@H](N)CCCCN)C(=O)N[C@H](Cc1ccccc1)C(=O)N[C@H](CCCCN)C(=O)N[C@H](CCCCN)C(=O)N1CCC[C@@H]1C(=O)N[C@H](CCSC)C(=O)N[C@@H](C(=O)N[C@@H](C(=O)NCC(=O)N[C@@H](C(=O)N[C@@H](C(=O)N[C@@H](C(=O)N1CCC[C@@H]1C(=O)N[C@H](Cc1ccccc1)C(N)=O)[C@H](C)CC)[C@H](C)O)C(C)C)[C@H](C)CC)C(C)C` [Ctn[15-34] enantio] (H-[dK][dK][dR][dL][dK][dK][dI][dF][dK][dK][dP][dM][dV][dI]G[dV][dT][dI][dP][dF]-NH2), the “MIC Pseudomonas sp.” value in test [1] was 0.1 µM (≈ 0.237 µg/mL). Moreover, the “MIC A. baumannii” value in test [2] stood at 0.39 µM (≈ 0.925 µg/mL). Besides, in the test on E. coli (BW25113), the “MIC E. coli” value amounted to 0.16 µM (≈ 0.379 µg/mL).
For `CC[C@H](C)[C@H](NC(=O)CNC(=O)[C@@H](NC(=O)[C@@H](NC(=O)[C@@H](NC(=O)[C@@H]1CCCN1C(=O)[C@@H](N)Cc1ccccc1)[C@@H](C)CC)[C@@H](C)O)C(C)C)C(=O)N[C@H](C(=O)N[C@@H](CCSC)C(=O)N1CCC[C@H]1C(=O)N[C@@H](CCCCN)C(=O)N[C@@H](CCCCN)C(=O)N[C@@H](Cc1ccccc1)C(=O)N[C@H](C(=O)N[C@@H](CCCCN)C(=O)N[C@@H](CCCCN)C(=O)N[C@@H](CC(C)C)C(=O)N[C@@H](CCCNC(=N)N)C(=O)N[C@@H](CCCCN)C(=O)N[C@@H](CCCCN)C(=O)N[C@H](C(=O)N[C@@H](CO)C(=O)N[C@@H](CCCCN)C(=O)N[C@@H](CCCCN)C(=O)N[C@H](C(=O)N[C@@H](CCCCN)C(=O)N[C@@H](CCCCN)C(=O)N[C@@H](Cc1ccccc1)C(=O)N[C@@H](Cc1ccccc1)C(=O)N[C@@H](CCCCN)C(=O)N[C@@H](CCCCN)C(=O)N[C@@H](Cc1ccccc1)C(=O)N[C@@H](CCCNC(=N)N)C(=O)N[C@@H](CCCCN)C(N)=O)C(C)C)C(C)C)[C@@H](C)CC)C(C)C` [Ctn retro] (H-FPITVGIVMPKKFIKKLRKKVSKKVKKFFKKFRK-NH2), in that order: 1.56 µM (≈ 6.48 µg/mL), 1.56 µM (≈ 6.48 µg/mL) and 0.78 µM (≈ 3.24 µg/mL).
